Measured values: US4794114A, “Inhibition of interleukin-1 production by monocytes and/or macrophages” (SmithKline Beckman Corporation, priority 1987, dated 1988)
Like-named read-outs stand apart in the source and are kept apart here.

Assays:
[1] = system: murine model of endotoxin shock; conditions: Hagmann et al., 1982; cited from earlier work
[2] = system: IL-1 production by human monocytes; experiment: in vitro IL-1 production by LPS-stimulated human peripheral blood monocytes (EL-4 readout); format: cell-based; conditions: for IC50: 1 ng/ml LPS, 1 hr pretreatment; for inhibition at 1 µM: 10^-6 M
Method: The effects of antiinflammatory/antiarthritic drugs of different classes, including Compound 1 on the in vitro production of IL-1 by human monocytes was examined.
(§1) Bacterial lipopolysaccharide (LPS) was used to induce IL-1 production by human peripheral blood monocytes. IL-1 activity was measured by its ability to stimulate a Interleukin 2 (IL-2) producing cell line (EL-4) to secrete IL-2, in concert with A23187 ionophore, according to the method of Simon et al., J. Immunol. Methods, 84, 85, (1985). Human peripheral blood monocytes were isolated and purified from either fresh blood preparations from volunteer donors, or from blood Bank buffy coats, according to the procedure of Colotta et al., J. Immunol., 132, 936 (1984). 1×10^6 of such monocytes are plated in 24-well plates at a concentration of 2 million/ml per well. The cells were allowed to adhere for 2 hours, after which time non-adherent cells were removed by gentle washing. Test compounds were then added to the cells for 1 hour (hr) before the addition of lipopolysaccharide (10 ng/ml unless otherwise noted), and the cultures were incubated at 37° C. for an additional 24 hours. At the end of the incubation period, culture supernatants were removed and clarified of cells and all debris. Culture supernatants were immediately assayed for IL-1 biological activity as well as prostaglandin and/or leukotriene concentrations by radioimmunoassay.
^(a) All compounds, except chloroquine, were dissolved in absolute
ethanol at 10^-2 M, which was subsequently diluted further in tissue
assay system at doses tested. Furthermore, test samples were dialyzed
prior to testing in the IL1 assay.
In order to elucidate the mechanism by which Compound 1 mediates its anti-inflammatory activity, the ability of this compound and two closely related analog metabolites, (i.e., the analogs of Compound 1 wherein X is S(0)n and n is 1 or 2) to inhibit human IL-1 production in vitro was evaluated according to the method of Example 1. Briefly, 1×10^6 human peripheral blood monocytes were plated in 24-well plates and allowed to adhere for 1 hr at 37° C. The above compounds were added to a final concentration of 10^-5 M to 10^-8 M. The monocytes were stimulated to produce IL-1 with 1 ng/ml LPS after a 1 hr pretreatment of the cells with the respective compounds.
The inhibitory effect of additional compounds of Formula (I) on the in vitro production of IL-1 production of IL-1 by human monocytes was determined according to the procedure of Examples 1 and 2.

[3] = system: IL-1 production by splenic adherent cells; experiment: adjuvant-induced arthritis in the rat: IL-1 production by LPS-stimulated splenic adherent cells; format: in vivo; conditions: for IL-1 Production (splenic adherent cells), % normal control: mg/kg: Compound 1 60, indomethacin 2.0, prednisolone 10, methotrexate 0.3, D-penicillamine 50
Method: (§2) Adjuvant-induced arthritis in the rat is a model of systemic inflammation with characteristics similar to rheumatoid arthritis in man. […] This model was employed to assess the effect of Compound 1 in vivo on this elevated IL-1 production. Briefly, rats were injected on day 0 with Freund's complete adjuvant in the right hind leg. Drugs were prepared as a suspension in tragacanth and administered daily per os either prophylactically (days 1 to 16) or therapeutically in a short-term modality (days 14 to 16). In all cases, final administration of drug occurred at 3 hours prior to sacrifice. Spleens were removed from these rats and the adherent cells were assessed for their ability to produce IL-1 in vitro in response to stimulation by LPS.
(§3) PROPHYLACTIC TREATMENT: Drugs were administered daily p.o. as a suspensio
(§4) in tragacanth from day 1 to day 16. Final dose given 3 hrs before
(§5) TREATMENT: Drugs were administered daily p.o. as above from
(§6) day 14 to day 16. Final dose given 3 hrs before sacrifice.
(§7) ***P < 0.01 Indomethacin 2.0 mg/kg
(§8) **P < 0.05 Compound 1 60 mg/kg
(§9) *P < 0.10 Prednisolone 10 mg/kg
(§10) D-Penicillamine 50 mg/kg

[4] = system: adjuvant-induced arthritis in the rat; experiment: adjuvant-induced arthritis in the rat: right leg paw edema; format: in vivo; conditions: mg/kg: Compound 1 60, indomethacin 2.0, prednisolone 10, methotrexate 0.3, D-penicillamine 50
Method: as §2, §3, §4, §5, §6, §7, §8, §9, §10

splenic adherent cells = experiment: adjuvant-induced arthritis in the rat: % splenic adherent cells; format: in vivo; conditions: mg/kg: Compound 1 60, indomethacin 2.0, prednisolone 10, methotrexate 0.3, D-penicillamine 50
Method: as §2, §3, §4, §5, §6, §7, §8, §9, §10

[5] = system: endotoxin shock in C57B1/6 mice; format: in vivo, mouse; conditions: for protection from lethal effects of LPS/GALN: mouse, in vivo
Method: (§11) Mice are very resistant to the lethal effects of bacterial lipopolysaccharides (LPS). D-Galactosamine (D-GALN) induces a high degree of sensitization to the lethal effects of LPS in mice and other experimental animals. [See, Galanos et al., Proc. Natl. Acad Sci. USA., 76, 5939 (1979)]. In mice, depending on the strain and age, the sensitivity to endotoxin can be increased many thousand-fold.
A number of preliminary experiments were carried out to establish this model of lethal endotoxin shock.

C57B1/6 mice = experiment: lethality of LPS in D-galactosamine treated C57B1/6 mice; format: in vivo, mouse; conditions: for Lethality, No. of Death/Total No.: D-Galactosamine 500 mg/kg i.v.
Method: as §11
A number of preliminary experiments were carried out to establish this model of lethal endotoxin shock. LPS concentrations of up to 1 mg/mouse are not lethal in C57B1/6 mice. When injected i.v. with D-GALN (500 mg/kg), however, the sensitivity increases so that 0.1 ug becomes a lethal dose (Table 5). The concentration of D-GALN required to obtain this effect is 400-500 mg/kg.
All compounds were administered i.v.

PGE2 = experiment: in vitro prostaglandin (PGE2) synthesis by LPS-stimulated human monocytes, RIA; format: cell-based
Method: as §1
^(c) PGE2 was assayed using an RIA kit.

[6] = Homo sapiens, Monocyte, Table 3, read-out: % Inhibition @ 10^-6 M
[7] = prophylactic, daily p.o. days 1-16
[8] = therapeutic, daily p.o. days 14-16

Question: With `Clc1ccc(C(c2ccc(Cl)cc2)n2cc[n+](CC(OCc3ccc(Cl)cc3Cl)c3ccc(Cl)cc3Cl)c2)cc1` (stereo not drawn) [calmidazolium] as the compound, how does the “prevention of endotoxin lethality” value [1] read?
Answer: Its value is “prevented endotoxin lethality”.

Question: With `[O-][S+]1CCn2c1nc(-c1ccc(F)cc1)c2-c1ccncc1` (stereo not drawn) [Compound 2] as the compound, how does the IC50 ([2]; Homo sapiens, Monocyte) read?
Answer: Its IC50 is 800 nM.

Question: What about the inhibition at 1 µM [2, 6] of the same compound?
Answer: The inhibition at 1 µM was 56%.

Question: For `C[C@]12C=CC(=O)C=C1CC[C@@H]1[C@@H]2[C@@H](O)C[C@@]2(C)[C@H]1CC[C@]2(O)C(=O)CO` [PREDNISOLONE, Prednisolone], which “IL-1 Production (splenic adherent cells), % normal control” value (“IL-1 Production … % normal control” for short) [3, 7] is on record?
Answer: The value was 168 ± 40 % normal control.

Question: What about the “IL-1 Production … % normal control” value [3, 8] of the same compound?
Answer: Its value is 300 ± 280 % normal control.

Question: And the “Right leg paw edema, % normal control” value [4, 7]?
Answer: Its value is 125 ± 22 % normal control.

Question: And the “Right leg paw edema, % normal control” value [4, 8]?
Answer: The value was 147 ± 18 % normal control.

Question: And the “% Adherent Cells (splenic), % normal control” value (from here on “% Adherent Cells (splenic)”) (splenic adherent cells; [7])?
Answer: Its value is 184 ± 79 % normal control.

Question: And the “% Adherent Cells (splenic)” value (splenic adherent cells; [8])?
Answer: Its value is 82 ± 47 % normal control.

Question: Which “protection from lethal effects of LPS/GALN” value [5] does the source give for `CN/C(=N/CCSCc1nc[nH]c1C)NC#N` [cimetidine] here?
Answer: The value was “not”.

Question: Which “Lethality, No. of Death/Total No.” value (C57B1/6 mice; 6 Hr.) does the source give for `N[C@H]1C(O)O[C@H](CO)[C@H](O)[C@@H]1O` (stereo partly drawn) [D-Galactosamine] here?
Answer: Its value is 0/10.

Question: What about the “Lethality, No. of Death/Total No.” value (C57B1/6 mice; 24 Hr.) of the same compound?
Answer: Its value is 0/10.

Question: What about the “D-GALN concentration required to sensitize to LPS” value (C57B1/6 mice; with LPS, i.v.) of the same compound?
Answer: The value was 400 to 500 mg/kg.

Question: For `O=C1CCN(c2ccccc2)N1` [Phenidone, phenidone], which “inhibition of prostaglandin synthesis” value (PGE2) is on record?
Answer: Its value is “little inhibitory effect on prostaglandin synthesis”.

Question: What about the inhibition at 1 µM (PGE2; Homo sapiens, Monocyte, 10^-6 M, read-out: % Inhibition PGE2) of the same compound?
Answer: Its inhibition at 1 µM is 0%.

Question: And the “protection from lethal effects of LPS/GALN” value [5]?
Answer: Its value is “protective effects”.

Question: What about the “inhibition of IL-1 production” value [2] of the same compound?
Answer: The value was “marginally active in inhibition of IL-1 production”.

Question: What about the inhibition at 1 µM ([2]; Homo sapiens, Monocyte, read-out: % Inhibition IL-1) of the same compound?
Answer: The inhibition at 1 µM was 18%.

Question: And the inhibition at 0.1 µM ([2]; Homo sapiens, Monocyte, 10^-7 M, read-out: % Inhibition IL-1)?
Answer: Its inhibition at 0.1 µM is 0%.

Question: Which inhibition at 1 µM [2, 6] does the source give for `COc1ccc(-c2nc3n(c2-c2ccncc2)CCCC3)cc1` [Compound 8] here?
Answer: Its inhibition at 1 µM is 30%.

Question: Which “IL-1 Production … % normal control” value [3, 7] does the source give for `CN(Cc1cnc2nc(N)nc(N)c2n1)c1ccc(C(=O)N[C@@H](CCC(=O)O)C(=O)O)cc1` [METHOTREXATE, methotrexate] here?
Answer: Its value is 67 ± 56 % normal control.

Question: What about the “IL-1 Production … % normal control” value [3, 8] of the same compound?
Answer: Its value is 436 ± 178 % normal control.

Question: What about the “effect in adjuvant arthritic rats” value ([3]; therapeutic, short-term treatment) of the same compound?
Answer: The value was “no effect”.

Question: And the “Right leg paw edema, % normal control” value [4, 7]?
Answer: Its value is 96 ± 4 % normal control.

Question: What about the “Right leg paw edema, % normal control” value [4, 8] of the same compound?
Answer: Its value is 194 ± 2 % normal control.

Question: And the “% Adherent Cells (splenic)” value (splenic adherent cells; [7])?
Answer: Its value is 134 ± 10 % normal control.

Question: What about the “% Adherent Cells (splenic)” value (splenic adherent cells; [8]) of the same compound?
Answer: The value was 284 ± 175 % normal control.

Question: With `C[C@@H]1C[C@H]2[C@@H]3CCC4=CC(=O)C=C[C@]4(C)[C@@]3(F)[C@@H](O)C[C@]2(C)[C@@]1(O)C(=O)CO` [Dexamethasone] as the compound, how does the “protection” value ([5]; administered 24 hours and 1 hour prior to LPS/GALN) read?
Answer: The value was “provided protection”.

Question: For `O=S1(=O)CCn2c1nc(-c1ccc(F)cc1)c2-c1ccncc1` [Compound 3], which IC50 ([2]; Homo sapiens, Monocyte) is on record?
Answer: Its IC50 is 610 nM.

Question: And the inhibition at 1 µM [2, 6]?
Answer: The inhibition at 1 µM was 54%.
